For 6 compounds, IC50 results are on record in ChEMBL document CHEMBL1129168, “Synthesis and antiviral activity of new phosphonobutoxypurines” (Bioorg Med Chem Lett, 1996).

One assay has as its system Human alphaherpesvirus 2. The experiment in a line: Compound was tested in vitro for antiviral activity against Herpes simplex virus-Type 2 in MS cells. The class given is functional, organism-based. The following applies: Human alphaherpesvirus 2, MS.
For the next assay, the species on record is Homo sapiens. Put plainly: Compound was tested for its activity against HIV replication in human peripheral blood lymphocytes (PBLs) using MTT-based cytotoxicity assay. The class given is functional, organism-based. In general terms: Formazan colour is commonly taken as a measure of viable cells.
The subject of another assay is MRC5. Put plainly: Compound was tested in vitro for antiviral activity against Herpes viruses(HSV-2, VZV) in human fibroblast (MRC-5) cells. The format is functional, cell-based.
The next assay relates to Human alphaherpesvirus 1. The experiment in a line: Compound was tested in vitro for antiviral activity against Herpes simplex virus-Type 1 in SC 16 cells. The format is functional, organism-based.
The next assay relates to Human alphaherpesvirus 3. The experiment in a line: Compound was tested in vitro for antiviral activity against Varicella zoster virus (VZV) in ellen cells. The class given is functional, organism-based.
Another assay relates to D34. The experiment in a line: Compound was tested in vitro for antiviral activity against Human immunodeficiency virus type-1 in D34 cells. The format is functional, cell-based.

Converted amounts (≈) assume the structure as drawn. Where only a bound is given, the exact number is not on record here.

A word on the IC50: it is the concentration that inhibits the measured activity by half. Low readings indicate greater potency, high ones weaker potency. Turning to `Nc1nc(O)c2ncn(OCCCCP(=O)(O)O)c2n1`, the IC50 in the assay on Human alphaherpesvirus 2 was 23 µg/mL (≈ 75.9 µM); in the assay filed under Homo sapiens, over 100 µM; in the assay on MRC5, 1.6 µg/mL (≈ 5.28 µM); with Human alphaherpesvirus 1, over 100 µg/mL; in the assay with Human alphaherpesvirus 3 it was 6 µg/mL (≈ 19.8 µM); with D34 it was 0.01 µM.

Take `Nc1ncnc2c1ncn2OCC(CO)CCP(=O)(O)O` (stereo unspecified): the IC50 in the assay with Human alphaherpesvirus 2 is over 100 µg/mL; in the assay with MRC5 it was over 100 µg/mL; with Human alphaherpesvirus 1 it was over 100 µg/mL; in the assay with Human alphaherpesvirus 3, over 100 µg/mL; in the assay on D34 it was over 100 µM.

As to `Nc1nc(N)c2ncn(OCC(CO)CCP(=O)(O)O)c2n1` (stereo unspecified), the half-inhibitory concentration (IC50) in the assay with Human alphaherpesvirus 2 is over 100 µg/mL; in the assay with MRC5, 78 µg/mL (≈ 235 µM); in the assay on Human alphaherpesvirus 1, over 100 µg/mL; in the assay on Human alphaherpesvirus 3, 17 µg/mL (≈ 51.2 µM).

With `Nc1ncnc2c1ncn2OCCCCP(=O)(O)O`, the half-maximal inhibitory concentration (IC50) in the assay with Human alphaherpesvirus 2 is over 100 µg/mL; in the assay on MRC5 it was 58 µg/mL (≈ 202 µM); with Human alphaherpesvirus 1, over 100 µg/mL; in the assay on Human alphaherpesvirus 3, over 100 µg/mL; in the assay with D34 it was over 100 µM.

With `Nc1nc(N)c2ncn(OCCCCP(=O)(O)O)c2n1`, the concentration for half-maximal inhibition (IC50) was over 100 µg/mL with Human alphaherpesvirus 2; over 100 µM in the assay filed under Homo sapiens; 26 µg/mL (≈ 86 µM) with MRC5; over 100 µg/mL in the assay on Human alphaherpesvirus 1; 17 µg/mL (≈ 56.2 µM) in the assay on Human alphaherpesvirus 3; 1 µM in the assay with D34.

On to `Nc1nc(O)c2ncn(OCC(CO)CCP(=O)(O)O)c2n1` (stereo unspecified), for which the half-maximal inhibitory concentration (IC50) with Human alphaherpesvirus 2 was over 100 µg/mL; with MRC5, 8.8 µg/mL (≈ 26.4 µM); with Human alphaherpesvirus 1, over 100 µg/mL; in the assay with Human alphaherpesvirus 3, 5 µg/mL (≈ 15 µM); in the assay on D34, over 100 µM.
